Assay results reported in ChEMBL document CHEMBL1201862, “PubChem BioAssay data set” (2004).
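Cultured in 96-well plates, cells were exposed to test compound for 48 hours across five concentrations. GI50 is the concentration that inhibits growth by half.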 Active and inactive are the calls of the source. Rule as the data show it: active = GI50 up to about 1.1 µM and inactive = higher.

How the values were obtained:
Assay in all cases: NCI anticancer screen, dose series, 48 h
NCI-H522 = tested on: NCI-H522
KM-20L2 = tested on: KM-20L2
SK-MEL-28 = tested on: SK-MEL-28
SF-268 = tested on: SF-268
SK-MEL-2 = tested on: SK-MEL-2
HOP-92 = tested on: HOP-92
DMS-273 = tested on: DMS-273
786-0 = tested on: 786-0
CCRF-CEM = tested on: CCRF-CEM
SNB-75 = tested on: SNB-75
DMS-114 = tested on: DMS-114
RPMI-8226 = tested on: RPMI-8226
ACHN = tested on: ACHN
IGROV-1 = tested on: IGROV-1
EKVX = tested on: EKVX
UACC-257 = tested on: UACC-257
OVCAR-3 = tested on: OVCAR-3
SN12C = tested on: SN12C
RXF 393 = tested on: RXF 393
OVCAR-4 = tested on: OVCAR-4
SK-OV-3 = tested on: SK-OV-3
A549 = tested on: A549
U-251 = tested on: U-251
LOX IMVI = tested on: LOX IMVI
OVCAR-8 = tested on: OVCAR-8
SNB-19 = tested on: SNB-19
SK-MEL-5 = tested on: SK-MEL-5
DLD-1 = tested on: DLD-1
KM12 = tested on: KM12
XF498 = tested on: XF498
SW-620 = tested on: SW-620
SF-295 = tested on: SF-295
UO-31 = tested on: UO-31
HCT-116 = tested on: HCT-116
Malme-3M = tested on: Malme-3M
HT-29 = tested on: HT-29
UACC-62 = tested on: UACC-62
COLO 205 = tested on: COLO 205
SNB-78 = tested on: SNB-78
K562 = tested on: K562
TK-10 = tested on: TK-10
HOP-62 = tested on: HOP-62
NCI-H226 = tested on: NCI-H226
CAKI-1 = tested on: CAKI-1
M14 = tested on: M14
SF-539 = tested on: SF-539
HL-60 = tested on: HL-60
NCI-H23 = tested on: NCI-H23
OVCAR-5 = tested on: OVCAR-5
A498 = tested on: A498
HCT-15 = tested on: HCT-15
LXFL 529 = tested on: LXFL 529
NCI-H460 = tested on: NCI-H460
M19-MEL = tested on: M19-MEL
MOLT-4 = tested on: MOLT-4
HCC 2998 = tested on: HCC 2998

Cc1ccc(C)c(NC(=O)C(=O)CC(=O)C2CCOC2=O)c1 (stereo unspecified)
GI50 (NCI-H522): > 100 µM (inactive)
GI50 (KM-20L2): > 100 µM (inactive)
GI50 (SK-MEL-28): 28.5 µM (inactive)
GI50 (SF-268): > 100 µM (inactive)
GI50 (SK-MEL-2): > 100 µM (inactive)
GI50 (HOP-92): > 100 µM (inactive)
GI50 (DMS-273): > 100 µM (inactive)
GI50 (786-0): > 100 µM (inactive)
GI50 (CCRF-CEM): > 100 µM (inactive)
GI50 (SNB-75): 67.5 µM (inactive)
GI50 (DMS-114): > 100 µM (inactive)
GI50 (RPMI-8226): > 100 µM (inactive)
GI50 (ACHN): > 100 µM (inactive)
GI50 (IGROV-1): > 100 µM (inactive)
GI50 (EKVX): > 100 µM (inactive)
GI50 (UACC-257): > 100 µM (inactive)
GI50 (OVCAR-3): > 100 µM (inactive)
GI50 (SN12C): > 100 µM (inactive)
GI50 (RXF 393): > 100 µM (inactive)
GI50 (OVCAR-4): > 100 µM (inactive)
GI50 (SK-OV-3): > 100 µM (inactive)
GI50 (A549): > 100 µM (inactive)
GI50 (U-251): > 100 µM (inactive)
GI50 (LOX IMVI): > 100 µM (inactive)
GI50 (OVCAR-8): > 100 µM (inactive)
GI50 (SNB-19): > 100 µM (inactive)
GI50 (SK-MEL-5): > 100 µM (inactive)
GI50 (DLD-1): > 100 µM (inactive)
GI50 (KM12): > 100 µM (inactive)
GI50 (XF498): > 100 µM (inactive)
GI50 (SW-620): > 100 µM (inactive)
GI50 (SF-295): > 100 µM (inactive)
GI50 (UO-31): > 100 µM (inactive)
GI50 (HCT-116): > 100 µM (inactive)
GI50 (Malme-3M): > 100 µM (inactive)
GI50 (HT-29): > 100 µM (inactive)
GI50 (UACC-62): > 100 µM (inactive)
GI50 (COLO 205): > 100 µM (inactive)
GI50 (SNB-78): > 100 µM (inactive)
GI50 (K562): > 100 µM (inactive)
GI50 (TK-10): > 100 µM (inactive)
GI50 (HOP-62): > 100 µM (inactive)
GI50 (NCI-H226): > 100 µM (inactive)
GI50 (CAKI-1): > 100 µM (inactive)
GI50 (M14): > 100 µM (inactive)
GI50 (SF-539): > 100 µM (inactive)
GI50 (HL-60): > 100 µM (inactive)
GI50 (NCI-H23): > 100 µM (inactive)
GI50 (OVCAR-5): > 100 µM (inactive)
GI50 (A498): > 100 µM (inactive)
GI50 (HCT-15): > 100 µM
GI50 (LXFL 529): > 100 µM (inactive)
GI50 (NCI-H460): > 100 µM (inactive)
GI50 (M19-MEL): > 100 µM (inactive)

Cc1cc2c(C)nn(Cc3ccccc3)c2c(C(N)=O)c1C
GI50 (NCI-H522): 99.1 µM (inactive)
GI50 (KM-20L2): > 100 µM (inactive)
GI50 (SK-MEL-28): > 100 µM (inactive)
GI50 (SF-268): > 100 µM (inactive)
GI50 (SK-MEL-2): > 100 µM (inactive)
GI50 (HOP-92): > 100 µM (inactive)
GI50 (DMS-273): > 100 µM (inactive)
GI50 (786-0): > 100 µM (inactive)
GI50 (CCRF-CEM): > 100 µM (inactive)
GI50 (SNB-75): 21.6 µM (inactive)
GI50 (DMS-114): > 100 µM (inactive)
GI50 (RPMI-8226): > 100 µM (inactive)
GI50 (ACHN): > 100 µM (inactive)
GI50 (IGROV-1): > 100 µM (inactive)
GI50 (EKVX): > 100 µM (inactive)
GI50 (UACC-257): > 100 µM (inactive)
GI50 (OVCAR-3): > 100 µM (inactive)
GI50 (SN12C): > 100 µM (inactive)
GI50 (OVCAR-4): > 100 µM (inactive)
GI50 (SK-OV-3): > 100 µM (inactive)
GI50 (A549): > 100 µM (inactive)
GI50 (U-251): > 100 µM (inactive)
GI50 (LOX IMVI): > 100 µM (inactive)
GI50 (OVCAR-8): > 100 µM (inactive)
GI50 (SNB-19): > 100 µM (inactive)
GI50 (SK-MEL-5): > 100 µM (inactive)
GI50 (DLD-1): > 100 µM (inactive)
GI50 (KM12): > 100 µM (inactive)
GI50 (XF498): > 100 µM (inactive)
GI50 (MOLT-4): 62.1 µM (inactive)
GI50 (SW-620): > 100 µM (inactive)
GI50 (SF-295): > 100 µM (inactive)
GI50 (UO-31): 67.9 µM (inactive)
GI50 (HCT-116): > 100 µM (inactive)
GI50 (Malme-3M): > 100 µM (inactive)
GI50 (HT-29): > 100 µM (inactive)
GI50 (UACC-62): > 100 µM (inactive)
GI50 (COLO 205): > 100 µM (inactive)
GI50 (SNB-78): > 100 µM (inactive)
GI50 (HCC 2998): > 100 µM (inactive)
GI50 (K562): > 100 µM (inactive)
GI50 (TK-10): > 100 µM (inactive)
GI50 (HOP-62): > 100 µM (inactive)
GI50 (M14): > 100 µM (inactive)
GI50 (SF-539): > 100 µM (inactive)
GI50 (NCI-H23): > 100 µM (inactive)
GI50 (OVCAR-5): > 100 µM (inactive)
GI50 (A498): > 100 µM (inactive)
GI50 (HCT-15): > 100 µM
GI50 (LXFL 529): > 100 µM (inactive)
GI50 (NCI-H460): > 100 µM (inactive)
GI50 (M19-MEL): > 100 µM (inactive)
